Source: the NIST ThermoML archive (doi:10.1021/je300584m)
Values joined by “and” are separate entries in the source; they are usually repeats but may differ in a detail not shown here. Equal values may be shown once. ± gives the expanded uncertainty stated by the source.

Assays:
[1] = for Normal melting temperature: DTA
[2] = Molar enthalpy of transition or fusion; settings: Crystal; DSC

O=C1c2ccccc2-c2ccccc21 [9(9H)-fluorenone]
vapor or sublimation pressure [kPa], [1]
Settings	Crystal	Liquid
312.19 K, Calculated from knudsen effusion weight loss	8.9e-05 ± 2e-05	–
314.21 K, Calculated from knudsen effusion weight loss	0.000115 ± 2e-05	–
316.11 K, Calculated from knudsen effusion weight loss	0.000143 ± 2.1e-05	–
318.18 K, Calculated from knudsen effusion weight loss	0.00018 ± 2.1e-05	–
320.2 K, Calculated from knudsen effusion weight loss	0.000225 ± 2.2e-05	–
322.11 K, Calculated from knudsen effusion weight loss	0.000273 ± 2.2e-05	–
324.19 K, Calculated from knudsen effusion weight loss	0.000344 ± 2.3e-05	–
326.19 K, Calculated from knudsen effusion weight loss	0.00043 ± 2.5e-05	–
326.88 K, Closed cell (Static) method	0.00045 ± 0.00011	–
327.85 K, Closed cell (Static) method	–	0.0008 ± 0.0001
328.11 K, Calculated from knudsen effusion weight loss	0.000528 ± 2.7e-05	–
328.32 K, Closed cell (Static) method	0.00053 ± 0.00011	–
329.82 K, Closed cell (Static) method	–	0.00095 ± 0.00012
329.83 K, Closed cell (Static) method	0.00061 ± 0.00011	–
330.18 K, Calculated from knudsen effusion weight loss	0.000638 ± 3e-05	–
331.3 K, Closed cell (Static) method	0.00072 ± 0.00012	–
331.79 K, Closed cell (Static) method	–	0.00112 ± 0.00012
332.18 K, Calculated from knudsen effusion weight loss	0.000796 ± 3.5e-05	–
332.81 K, Closed cell (Static) method	0.00085 ± 0.00012	–
333.8 K, Closed cell (Static) method	–	0.00133 ± 0.00012
334.1 K, Calculated from knudsen effusion weight loss	0.000977 ± 4e-05	–
334.29 K, Closed cell (Static) method	0.00098 ± 0.00012	–
335.78 K, Closed cell (Static) method	0.00113 ± 0.00012	0.00159 ± 0.00013
337.25 K, Closed cell (Static) method	0.00133 ± 0.00013	–
337.74 K, Closed cell (Static) method	–	0.00185 ± 0.00014
338.75 K, Closed cell (Static) method	0.00153 ± 0.00013	–
339.72 K, Closed cell (Static) method	–	0.00217 ± 0.00014
340.21 K, Closed cell (Static) method	0.00177 ± 0.00013	–
341.69 K, Closed cell (Static) method	0.00205 ± 0.00014	–
341.76 K, Closed cell (Static) method	–	0.00258 ± 0.00015
343.19 K, Closed cell (Static) method	0.00235 ± 0.00015	–
343.72 K, Closed cell (Static) method	–	0.00299 ± 0.00017
344.68 K, Closed cell (Static) method	0.00272 ± 0.00016	–
345.66 K, Closed cell (Static) method	–	0.00348 ± 0.00018
346.2 K, Closed cell (Static) method	0.00311 ± 0.00017	–
347.68 K, Closed cell (Static) method	0.00355 ± 0.00018	0.00409 ± 0.0002
349.17 K, Closed cell (Static) method	0.00409 ± 0.0002	–
349.66 K, Closed cell (Static) method	–	0.00468 ± 0.00022
350.65 K, Closed cell (Static) method	0.00467 ± 0.00022	–
351.63 K, Closed cell (Static) method	–	0.00545 ± 0.00025
352.14 K, Closed cell (Static) method	0.00544 ± 0.00024	–
353.63 K, Closed cell (Static) method	–	0.0063 ± 0.0003
355.58 K, Closed cell (Static) method	–	0.00731 ± 0.00031
357.59 K, Closed cell (Static) method	–	0.0084 ± 0.0004
359.82 K, Closed cell (Static) method	–	0.00981 ± 0.0004
361.57 K, Closed cell (Static) method	–	0.01112 ± 0.00045
361.59 K, Closed cell (Static) method	–	0.01107 ± 0.00045
363.79 K, Closed cell (Static) method	–	0.01285 ± 0.00052
365.52 K, Closed cell (Static) method	–	0.01446 ± 0.00054
367.74 K, Closed cell (Static) method	–	0.01661 ± 0.00057
369.53 K, Closed cell (Static) method	–	0.01887 ± 0.00061
371.72 K, Closed cell (Static) method	–	0.02159 ± 0.00065
373.53 K, Closed cell (Static) method	–	0.02435 ± 0.00069
375.67 K, Closed cell (Static) method	–	0.02768 ± 0.00074
377.47 K, Closed cell (Static) method	–	0.03128 ± 0.0008
379.65 K, Closed cell (Static) method	–	0.03529 ± 0.00086
381.4 K, Closed cell (Static) method	–	0.03955 ± 0.00092
383.6 K, Closed cell (Static) method	–	0.04451 ± 0.001
385.47 K, Closed cell (Static) method	–	0.05021 ± 0.0011
387.56 K, Closed cell (Static) method	–	0.05645 ± 0.0012
391.51 K, Closed cell (Static) method	–	0.07082 ± 0.0014
393.41 K, Closed cell (Static) method	–	0.07755 ± 0.0015
395.41 K, Closed cell (Static) method	–	0.08762 ± 0.0017
397.36 K, Closed cell (Static) method	–	0.09675 ± 0.0018
399.35 K, Closed cell (Static) method	–	0.1089 ± 0.002
401.32 K, Closed cell (Static) method	–	0.1202 ± 0.0022
403.3 K, Closed cell (Static) method	–	0.1342 ± 0.0021
406.25 K, Closed cell (Static) method	–	0.1558 ± 0.0023
407.26 K, Closed cell (Static) method	–	0.1646 ± 0.0023
409.18 K, Closed cell (Static) method	–	0.1808 ± 0.0025
411.21 K, Closed cell (Static) method	–	0.2014 ± 0.0026
413.17 K, Closed cell (Static) method	–	0.2206 ± 0.0028
415.17 K, Closed cell (Static) method	–	0.244 ± 0.003
417.11 K, Closed cell (Static) method	–	0.2679 ± 0.0032
419.13 K, Closed cell (Static) method	–	0.2948 ± 0.0035
421.06 K, Closed cell (Static) method	–	0.3242 ± 0.0037
423.04 K, Closed cell (Static) method	–	0.355 ± 0.004
425 K, Closed cell (Static) method	–	0.3873 ± 0.0043
427.02 K, Closed cell (Static) method	–	0.4288 ± 0.0046
428.95 K, Closed cell (Static) method	–	0.467 ± 0.005
430.77 K, Closed cell (Static) method	–	0.511 ± 0.005
432.92 K, Closed cell (Static) method	–	0.5574 ± 0.0057
434.9 K, Closed cell (Static) method	–	0.604 ± 0.006
436.86 K, Closed cell (Static) method	–	0.6602 ± 0.0066
438.87 K, Closed cell (Static) method	–	0.7204 ± 0.0071
440.85 K, Closed cell (Static) method	–	0.7844 ± 0.0077

Settings	Normal melting temperature [°C]
[1], Crystal	83.01 ± 0.56

Settings	Molar enthalpy of transition or fusion [kcal/mol]
[2]	4.21 ± 0.359

OC1c2ccccc2-c2ccccc21 [9H-fluoren-9-ol]
[1]
Settings	vapor or sublimation pressure
337.16 K, Crystal, Calculated from knudsen effusion weight loss	0.000106 ± 2e-05 kPa
339.13 K, Crystal, Calculated from knudsen effusion weight loss	0.000132 ± 2.1e-05 kPa
341.1 K, Crystal, Calculated from knudsen effusion weight loss	0.000163 ± 2.1e-05 kPa
343.16 K, Crystal, Calculated from knudsen effusion weight loss	0.000196 ± 2.1e-05 kPa
345.09 K, Crystal, Calculated from knudsen effusion weight loss	0.000243 ± 2.2e-05 kPa
347.09 K, Crystal, Calculated from knudsen effusion weight loss	0.000307 ± 2.3e-05 kPa
349.15 K, Crystal, Calculated from knudsen effusion weight loss	0.000385 ± 2.4e-05 kPa
350.76 K, Crystal, Closed cell (Static) method	0.00051 ± 0.00012 kPa
351.11 K, Crystal, Calculated from knudsen effusion weight loss	0.00047 ± 2.6e-05 kPa
352.75 K, Crystal, Closed cell (Static) method	0.00062 ± 0.00012 kPa
353.11 K, Crystal, Calculated from knudsen effusion weight loss	0.000579 ± 2.9e-05 kPa
354.71 K, Crystal, Closed cell (Static) method	0.00075 ± 0.00012 kPa
355.1 K, Crystal, Calculated from knudsen effusion weight loss	0.00071 ± 3.2e-05 kPa
356.59 K, Crystal, Closed cell (Static) method	0.00092 ± 0.00013 kPa
357.09 K, Crystal, Calculated from knudsen effusion weight loss	0.000884 ± 3.7e-05 kPa
358.67 K, Crystal, Closed cell (Static) method	0.00113 ± 0.00013 kPa
359.09 K, Crystal, Calculated from knudsen effusion weight loss	0.001078 ± 8.5e-05 kPa
360.98 K, Crystal, Closed cell (Static) method	0.00139 ± 0.00013 kPa
362.63 K, Crystal, Closed cell (Static) method	0.00165 ± 0.00014 kPa
364.58 K, Crystal, Closed cell (Static) method	0.00198 ± 0.00015 kPa
366.55 K, Crystal, Closed cell (Static) method	0.00238 ± 0.00016 kPa
368.53 K, Crystal, Closed cell (Static) method	0.0029 ± 0.00017 kPa
370.51 K, Crystal, Closed cell (Static) method	0.00343 ± 0.00018 kPa
372.48 K, Crystal, Closed cell (Static) method	0.00418 ± 0.00021 kPa
372.51 K, Crystal, Closed cell (Static) method	0.00419 ± 0.00021 kPa
374.53 K, Crystal, Closed cell (Static) method	0.00504 ± 0.00024 kPa
376.49 K, Crystal, Closed cell (Static) method	0.00599 ± 0.00027 kPa
378.48 K, Crystal, Closed cell (Static) method	0.00711 ± 0.00031 kPa
380.44 K, Crystal, Closed cell (Static) method	0.00855 ± 0.00036 kPa
382.39 K, Crystal, Closed cell (Static) method	0.01001 ± 0.00041 kPa
384.38 K, Crystal, Closed cell (Static) method	0.01183 ± 0.00048 kPa
386.35 K, Crystal, Closed cell (Static) method	0.01393 ± 0.00053 kPa
388.32 K, Crystal, Closed cell (Static) method	0.01662 ± 0.00058 kPa
390.28 K, Crystal, Closed cell (Static) method	0.0195 ± 0.00062 kPa
392.27 K, Crystal, Closed cell (Static) method	0.02263 ± 0.00067 kPa
394.22 K, Crystal, Closed cell (Static) method	0.02684 ± 0.00073 kPa
396.22 K, Crystal, Closed cell (Static) method	0.03155 ± 0.0008 kPa
398.16 K, Crystal, Closed cell (Static) method	0.03678 ± 0.00088 kPa
400.1 K, Crystal, Closed cell (Static) method	0.04277 ± 0.00098 kPa
402.11 K, Crystal, Closed cell (Static) method	0.05007 ± 0.0011 kPa
404.04 K, Crystal, Closed cell (Static) method	0.05782 ± 0.0012 kPa
406.06 K, Crystal, Closed cell (Static) method	0.06738 ± 0.0014 kPa
407.96 K, Crystal, Closed cell (Static) method	0.07784 ± 0.0015 kPa
409.98 K, Liquid, Closed cell (Static) method	0.1186 ± 0.0021 kPa
410 K, Crystal, Closed cell (Static) method	0.09038 ± 0.0017 kPa
411.89 K, Crystal, Closed cell (Static) method	0.104 ± 0.0019 kPa
411.93 K, Liquid, Closed cell (Static) method	0.1331 ± 0.0021 kPa
413.86 K, Crystal, Closed cell (Static) method	0.1211 ± 0.0022 kPa
413.91 K, Liquid, Closed cell (Static) method	0.15 ± 0.0022 kPa
415.85 K, Crystal, Closed cell (Static) method	0.1377 ± 0.0021 kPa
415.88 K, Liquid, Closed cell (Static) method	0.1652 ± 0.0023 kPa
417.82 K, Crystal, Closed cell (Static) method	0.1592 ± 0.0023 kPa
417.86 K, Liquid, Closed cell (Static) method	0.1822 ± 0.0025 kPa
419.78 K, Crystal, Closed cell (Static) method	0.1848 ± 0.0025 kPa
419.81 K, Liquid, Closed cell (Static) method	0.2047 ± 0.0027 kPa
421.73 K, Crystal, Closed cell (Static) method	0.2084 ± 0.0027 kPa
421.79 K, Liquid, Closed cell (Static) method	0.2266 ± 0.0029 kPa
423.71 K, Crystal, Closed cell (Static) method	0.2411 ± 0.003 kPa
423.75 K, Liquid, Closed cell (Static) method	0.2538 ± 0.0031 kPa
425.74 K, Liquid, Closed cell (Static) method	0.2828 ± 0.0034 kPa
427.7 K, Liquid, Closed cell (Static) method	0.3131 ± 0.0036 kPa and 0.3096 ± 0.0036 kPa
429.67 K, Liquid, Closed cell (Static) method	0.3457 ± 0.0039 kPa
431.58 K, Liquid, Closed cell (Static) method	0.3815 ± 0.0042 kPa
431.6 K, Liquid, Closed cell (Static) method	0.3843 ± 0.0042 kPa
433.57 K, Liquid, Closed cell (Static) method	0.4239 ± 0.0046 kPa
435.51 K, Liquid, Closed cell (Static) method	0.4605 ± 0.0049 kPa
435.52 K, Liquid, Closed cell (Static) method	0.4642 ± 0.0049 kPa
437.51 K, Liquid, Closed cell (Static) method	0.5099 ± 0.0053 kPa
439.47 K, Liquid, Closed cell (Static) method	0.5625 ± 0.0058 kPa
441.42 K, Liquid, Closed cell (Static) method	0.615 ± 0.0062 kPa

Settings	Normal melting temperature [°C]
[1], Crystal	155.6 ± 0.39

Settings	Molar enthalpy of transition or fusion [kcal/mol]
[2]	5.78 ± 0.359
